{"source": "patent US9944690B2", "about": "“Methods for controlling T cell proliferation” (BELLICUM PHARMACEUTICALS, INC., priority 2013, dated 2018)", "key": {"cells": {"test_system": "cells", "experiment": "Amount of AP1903 needed in vitro for effective signaling of cells", "type": "cell-based", "protocol": "The amount of AP1903 needed in vitro for effective signaling of cells is about 10-100 nM (MW: 1412 Da). This equates to 14-140 μg/L or ˜0.014-0.14 mg/kg (1.4-140 μg/kg). The dosage may vary according to the application, and may, in certain examples, be more in the range of 0.1-10 nM, or in the range of 50-150 nM, 10-200 nM, 75-125 nM, 100-500 nM, 100-600 nM, 100-700 nM, 100-800 nM, or 100-900 nM. Doses up to 1 mg/kg were well-tolerated in the Phase I study of AP1903 described above."}, "[1]": {"test_system": "T cells transduced with the retrovirus containing iMC (RV-172)", "experiment": "AP1903-induced T cell activation by cytokine production (Bio-Plex 27-plex)", "type": "cell-based, human", "settings": "iMC (RV-172) T cells, 10 nM AP1903, 24 hours, supernatant", "protocol": "5. To assess AP1903-dependent T cell activation of T cells, 1×10^5 non-transduced (NT) or T cells transduced with the control retrovirus (RV-171) or the retrovirus containing iMC(RV-172) were plated in triplicate in 96-well plates and cultured at 37° C. 5% CO2 with media alone, or media containing 10 nM AP1903.\n6. After 24 hours, the cells were gently mixed and the plate was centrifuged. Supernatant was then collected and plated into a Bio-Plex Human Cytokine/Chemokine 27-plex plate, which measures the following cytokines and chemokines: • a. Basic-FGF, G-CSF, GM-CSF, IFN-gamma, IL-1Ra, IL-1beta, IL-2, IL-4, IL-5, IL-6, […], IL-7, […], IL-9, IL-10, IL-12p70, IL-13, IL-15, IL-17RA, eotaxin, IP10, MCP-1, MIP-1alpha, MIP-1beta, PDGF-bb, RANTES, TNF-alpha and VEGF. • b. The cytokines and chemokines in the supernatants were subsequently measured and compared to standards in the plate using a Bio-Plex MAGPIX Multiplex Reader.\nT cells were stimulated with 10 nM AP1903 for 24 hours then supernatants were assayed for cytokine levels."}, "CAPAN-1-GFP tumor cells": {"test_system": "CAPAN-1-GFP tumor cells", "experiment": "Co-culture of iMC-enabled T cells with CAPAN-1 tumor cells", "type": "cell-based, human", "settings": "RV-172 T cells : CAPAN-1-GFP 5:1, 10 nM AP1903, 72 hours"}, "[2]": {"settings": "cited from earlier work"}, "[3]": {"test_system": "T cells transduced with RV-172", "experiment": "T cell proliferation in co-culture wells on AP1903 stimulation", "settings": "RV-172 T cells with 10 nM AP1903, co-culture 72 hours, both donors", "experimental": "Non-transduced T cells or cells transduced with RV-171 (control vector) or RV-172 (iMC vector) were cultured at a 5:1 ratio of T cells to tumor cells in media supplemented with 50 U/ml IL-2, and either with or without 10 nM AP1903. Co-cultures were then incubated at 37° C. and 5% CO2 for 72 hours. Cultures were subsequently analyzed for the presence of GFP tumor cells by fluorescent microscopy and by harvesting the cultures with 0.25% trypsin/EDTA and measuring the frequency of GFP^+CD3^− tumor cells in the culture by flow cytometry.\nFollowing these initial observations, T cells and tumor cells were harvested and analyzed by flow cytometry to determine the frequency of remaining CAPAN-1 GFP^+ tumor cells."}}, "note": "Entries after “also recorded” stand apart in the source; their conditions may differ. Read-outs that look alike come from different tables or passages of the source."}
{"smiles": "CC[C@H](C(=O)N1CCCC[C@H]1C(=O)O[C@H](CCc1ccc(OC)c(OC)c1)c1cccc(OCC(=O)NCCNC(=O)COc2cccc([C@@H](CCc3ccc(OC)c(OC)c3)OC(=O)[C@@H]3CCCCN3C(=O)[C@@H](CC)c3cc(OC)c(OC)c(OC)c3)c2)c1)c1cc(OC)c(OC)c(OC)c1", "note": "(relative stereo) [AP1903, 2-Piperidinecarboxylic acid, 1-[(2S)-1-oxo-2-(3,4,5-trimethoxyphenyl)butyl]-, 1,2-ethanediylbis[imino(2-oxo-2,1-ethanediyl)oxy-3,1-phenylene[(1R)-3-(3,4-dimethoxyphenyl)propylidene]]ester, [2S-[1(R*),2R*[S*[S*[1(R*),2R*]]]]]-(9Cl)]", "values": [{"measurement": "amount needed for effective signaling, as dose", "setting": "cells; converted from 14-140 μg/L", "result": "14 to 140", "unit": "µg/kg"}, {"measurement": "amount needed for effective signaling, as mass concentration", "setting": "cells; converted with MW 1412 Da", "result": "14 to 140", "unit": "µg/L"}, {"measurement": "amount needed for effective signaling, as dose", "setting": "cells; figure in brackets after the mg/kg range", "result": "1.4 to 140", "unit": "µg/kg"}, {"measurement": "amount needed in vitro for effective signaling of cells", "setting": "cells; in vitro", "result": "10 to 100", "unit": "nM"}, {"measurement": "Basic-FGF secretion", "setting": "[1]", "result": "did not appear to be induced"}, {"measurement": "G-CSF secretion", "setting": "[1]", "result": "did not appear to be induced"}, {"measurement": "GM-CSF secretion", "setting": "[1]", "result": "showed induction"}, {"measurement": "IFN-gamma secretion", "setting": "[1]", "result": "showed induction"}, {"measurement": "IL-1Ra secretion", "setting": "[1]", "result": "did not appear to be induced"}, {"measurement": "IL-1beta secretion", "setting": "[1]", "result": "showed induction"}, {"measurement": "IL-2 secretion", "setting": "[1]", "result": "did not appear to be induced"}, {"measurement": "IL-4 secretion", "setting": "[1]", "result": "showed induction"}, {"measurement": "IL-5 secretion", "setting": "[1]", "result": "showed induction"}, {"measurement": "IL-6 secretion", "setting": "[1]", "result": "showed induction"}, {"measurement": "IL-7 secretion", "setting": "[1]", "result": "did not appear to be induced"}, {"measurement": "IL-8 secretion", "setting": "[1]", "result": "showed induction"}, {"measurement": "IL-9 secretion", "setting": "[1]", "result": "did not appear to be induced"}, {"measurement": "IL-10 secretion", "setting": "[1]", "result": "did not appear to be induced"}, {"measurement": "IL-12p70 secretion", "setting": "[1]", "result": "showed induction"}, {"measurement": "IL-13 secretion", "setting": "[1]", "result": "showed induction"}, {"measurement": "IL-15 secretion", "setting": "[1]", "result": "did not appear to be induced"}, {"measurement": "IL-17RA secretion", "setting": "[1]", "result": "did not appear to be induced"}, {"measurement": "IP10 secretion", "setting": "[1]", "result": "showed induction"}, {"measurement": "MCP-1 secretion", "setting": "[1]", "result": "did not appear to be induced"}, {"measurement": "MIP-1alpha secretion", "setting": "[1]", "result": "showed induction"}, {"measurement": "MIP-1beta secretion", "setting": "[1]", "result": "showed induction"}, {"measurement": "PDGF-bb secretion", "setting": "[1]", "result": "did not appear to be induced"}, {"measurement": "RANTES secretion", "setting": "[1]", "result": "showed induction"}, {"measurement": "TNF-alpha secretion", "setting": "[1]", "result": "showed induction"}, {"measurement": "VEGF secretion", "setting": "[1]", "result": "did not appear to be induced"}, {"measurement": "eotaxin secretion", "setting": "[1]", "result": "did not appear to be induced"}, {"measurement": "GFP+ tumor cells by flow cytometry", "setting": "CAPAN-1-GFP tumor cells", "result": "reduction of GFP^+ tumor cells; also recorded: induces T cell killing of tumor cells"}, {"measurement": "GFP+ tumor cells by fluorescent microscopy", "setting": "CAPAN-1-GFP tumor cells", "result": "very few viable GFP^+ tumor cells; also recorded: elimination of GFP^+ tumor cells"}, {"measurement": "relation of AP1903 plasma levels to dose", "setting": "[2]; 0.01, 0.05, 0.1, 0.5 and 1.0 mg/kg IV over 2 hours", "result": "directly proportional to dose"}, {"measurement": "plasma level as % of maximal concentration", "setting": "[2]; 0.5 hours post-dose", "result": "approximately 18%"}, {"measurement": "plasma level as % of maximal concentration", "setting": "[2]; 2 hours post-dose", "result": "~7", "unit": "%"}, {"measurement": "plasma level as % of maximal concentration", "setting": "[2]; 10 hours post-dose", "result": "~1", "unit": "%"}, {"measurement": "well-tolerated doses", "setting": "[2]; Phase I study", "result": "up to 1 mg/kg"}, {"measurement": "mean Cmax", "setting": "[2]; plasma, single doses over the 0.01-1.0 mg/kg dose range infused IV over 2 hours, 24 healthy volunteers", "result": "10 to 1275", "unit": "ng/mL"}, {"measurement": "T cell proliferation / T cell blast activation (inspection, microscopy)", "setting": "[3]", "result": "proliferating; also recorded: activation of T cell blasts"}]}
